# From paper PMC7058665, “GPU-Accelerated Discovery of Pathogen-Derived Molecular Mimics of a T-Cell Insulin Epitope” (Frontiers in Immunology, 2020)
# Where no end group is shown, it is not given here.
# System: InsB4 T-cell clone
# Format: cell-based, human
# Conditions: not given
# 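Further: T-cell clone rested overnight in 5% FBS medium, then cultured overnight with peptide titrations, MIP-1β released into supernatant measured by ELISA.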
row,Compound,EC50 [nM]
1,ALVENQFLL,2200
2,EMLERGLLV,1600
3,FILEGILTV,54
4,FLIEGVLTI,55
5,FLTEWILPL,5800
6,FLVEQVLFA,3300
7,IITEGIMTL,5900
8,IIVEDSLLV,1.1
9,ILIEGILFF,0.92
10,ILIERGLTF,79000
11,ILLENGYLL,600
12,IMYEGLLFV,70
13,ITIERILTI,1800
14,IVLEGAMIV,130
15,LIEERSPLI,6100
16,LILERSPTA,13000
17,LILQGVLTM,2600
18,LLEENSPML,50
19,LLIENFVTG,5600
20,LLIIGGLLF,290
21,LLLERMFLF,1400
22,LLLERYFLA,66

row,Compound,EC50 [nM]
1,LLVEDLLVL,200
2,LLVEGALTG,640
3,LLVEGAMTV,42
4,LLVENWPLL,2.4
5,LLVERQLVL,6600
6,LMLENLLTF,2200
7,LMLERGFII,950
8,LMVENVPFA,0.052
9,LQVEGAMSV,240
10,LQVENYLPI,27
11,LQVIRILLA,2600
12,LTVEGIFRV,1600
13,LVLEDILLA,1400
14,MIVEGFLLL,59
15,MIVENVPLL,0.17
16,MLIEGVLTV,10
17,MLIERVMST,5600
18,MLVEEGLLV,97
19,MLVEGVLLA,55
20,MLVEWALVA,54
21,MLYENWLLS,1900
22,MQLENGLLL,6.3

# Same assay, conditions: 20 top-scoring fungal peptides, Figure 8; overnight, MIP-1β ELISA; NR = no T-cell response; read-out: EC50 of peptide activation of InsB4
row,Compound,EC50 [nM]
1,CC(C)C[C@H](NC(=O)[C@H](C)NC(=O)[C@H](CCC(=O)O)NC(=O)[C@@H](NC(=O)[C@H](CC(C)C)NC(=O)[C@@H](N)Cc1c[nH]cn1)C(C)C)C(=O)N[C@@H](Cc1ccc(O)cc1)C(=O)N[C@@H](CC(C)C)C(=O)N[C@H](C(=O)O)C(C)C [reference compound],1100
2,FLLERILIV,960
3,ILVERALFT [top-scoring fungal peptide],> 10000
4,IMLENGPFL [top-scoring fungal peptide],> 10000
5,IQLENSLFA,8900
6,LIIEWIFFL,150
7,LIIEWYLIM,860
8,LILENYMFA,880
9,LLVEDMLLM,390
10,LQLEGQLLL,3900
11,LVVEGSLFV,340
12,MIIEGFLLI,130
13,MLLEGMMIV,110
14,MQVEWILTF,12000

# Same assay, conditions: overnight, MIP-1β ELISA
row,Compound,agonist activity on InsB4 in words (relative to index HLVEALYLV)
1,"ILLEGILIL [bacterial protein-derived nonamer peptide, Bin 2]",most potent
